Assay results from patent US4845194A, “Glycopeptide recovery process” (Eli Lilly and Company, priority 1987, dated 1989).

How the values were obtained:
Assay in all cases: In vivo antimicrobial activity in experimentally infected mice (ED50)
[1] = system: Staphylococcus aureus; details: for ED50 Value Staphylococcus aureus: mg/kg × 2, doses administered subcutaneously to mice 1 and 4 hours postinfection, dose protecting 50% of animals
Experimental: (§1) The A82846 antibiotics have shown in vivo antimicrobial activity against experimentally-induced infections in laboratory animals. When two doses of test compound were administered to mice experimentally infected with the test organism, the activity observed was measured as an ED50 value [effective dose in mg/kg to protect 50% of the test animals: see Warren Wick, et al., J. Bacteriol. 81, 233-235 (1961)].
(§2) ^a mg/kg × 2; doses administered subcutaneously to mice 1 and 4

[2] = system: Streptococcus pneumoniae; details: for ED50 Value Streptococcus pneumoniae: mg/kg × 2, doses administered subcutaneously to mice 1 and 4 hours postinfection, dose protecting 50% of animals
Experimental: as §1, §2

[3] = system: Streptococcus pyogenes; details: for ED50 Value Streptococcus pyogenes: mg/kg × 2, doses administered subcutaneously to mice 1 and 4 hours postinfection, dose protecting 50% of animals
Experimental: as §1, §2

SMILES	ED50 Value Staphylococcus aureus [1]	ED50 Value Streptococcus pneumoniae [2]	ED50 Value Streptococcus pyogenes [3]	ED50 ([1]; Staphylococcus aureus, sc, read-out: ED50 Value Staphylococcus aureus)	ED50 ([2]; Streptococcus pneumoniae, sc, read-out: ED50 Value Streptococcus pneumoniae)	ED50 ([3]; Streptococcus pyogenes, sc, read-out: ED50 Value Streptococcus pyogenes)
CN[C@@H](CC(C)C)C(=O)N[C@H]1C(=O)N[C@H](CC(N)=O)C(=O)N[C@H]2C(=O)N[C@H]3C(=O)N[C@@H](C(=O)NC(C(=O)O)c4cc(O)cc(O)c4-c4cc3ccc4O)[C@@H](O[C@H]3C[C@](C)(N)[C@H](O)[C@@H](C)O3)c3ccc(cc3)Oc3cc2cc(c3O[C@H]2O[C@@H](CO)[C@@H](O)[C@H](O)[C@@H]2O[C@H]2C[C@](C)(N)[C@H](O)[C@@H](C)O2)Oc2ccc(cc2)[C@@H]1O (stereo partly drawn) [Compound A82846C]	2.18 mg/kg	5.87 mg/kg	2.71 mg/kg			
CN[C@H](CC(C)C)C(=O)N[C@H]1C(=O)N[C@@H](CC(N)=O)C(=O)N[C@H]2C(=O)N[C@H]3C(=O)N[C@H](C(=O)N[C@H](C(=O)O)c4cc(O)cc(O)c4-c4cc3ccc4O)[C@H](O)c3ccc(c(Cl)c3)Oc3cc2cc(c3O[C@@H]2O[C@H](CO)[C@@H](O)[C@H](O)[C@H]2O[C@H]2C[C@](C)(N)[C@H](O)[C@H](C)O2)Oc2ccc(cc2Cl)[C@H]1O [Vancomycin, vancomycin, reference compound]				1.3 mg/kg	1.52 mg/kg	0.72 mg/kg
CN[C@H](CC(C)C)C(=O)N[C@H]1C(=O)N[C@@H](CC(N)=O)C(=O)N[C@H]2C(=O)N[C@H]3C(=O)N[C@H](C(=O)N[C@@H](C(=O)O)c4cc(O)cc(O)c4-c4cc3ccc4O)[C@H](O[C@@H]3C[C@@](C)(N)[C@H](O)[C@@H](C)O3)c3ccc(cc3)Oc3cc2cc(c3O[C@H]2O[C@@H](CO)[C@H](O)[C@@H](O)[C@@H]2O[C@H]2C[C@](C)(N)[C@@H](O)[C@H](C)O2)Oc2ccc(cc2Cl)[C@H]1O [Compound A82846A]	0.19 mg/kg	0.17 mg/kg	0.19 mg/kg			
CN[C@H](CC(C)C)C(=O)N[C@H]1C(=O)N[C@@H](CC(N)=O)C(=O)N[C@H]2C(=O)N[C@H]3C(=O)N[C@H](C(=O)N[C@H](C(=O)O)c4cc(O)cc(O)c4-c4cc3ccc4O)[C@H](O[C@H]3C[C@](C)(N)[C@@H](O)[C@H](C)O3)c3ccc(c(Cl)c3)Oc3cc2cc(c3O[C@@H]2O[C@H](CO)[C@@H](O)[C@H](O)[C@H]2O[C@H]2C[C@](C)(N)[C@@H](O)[C@H](C)O2)Oc2ccc(cc2Cl)[C@H]1O [Compound A82846B]	0.19 mg/kg	0.18 mg/kg	0.20 mg/kg			
